In paper PMC3334838 (Chemistry & biology, 2012):

Assays:
[1] = system: Rat-2 cells expressing c-Fes-L145P; assay: Soft-agar colony formation, Rat-2 fibroblasts transformed by c-Fes-L145P; assay type: cell-based, rodent
Hck-YF = Hck-YF (Homo sapiens, UniProt P08631, Y522F); assay: Kinase autophosphorylation in transformed Rat-2 cells by immunoblotting, Hck-YF; assay type: cell-based
[2] = system: control Rat-2 cells expressing GFP alone; assay: Growth of control Rat-2 cells in monolayer culture; assay type: cell-based, rodent
RAW 264.7 cells = assay: Osteoclast differentiation assay; assay type: cell-based, mouse
[3] = system: Rat-2 cells transformed by Hck-YF; assay: Soft-agar colony formation, Rat-2 fibroblasts transformed by active Hck; assay type: cell-based, rodent
[4] = system: bone marrow-derived macrophages (BMM); assay: Osteoclast differentiation assay; assay type: cell-based, mouse; conditions: M-CSF and RANKL
Erk2 [5] = molecular target: T1, Erk2 (Homo sapiens, UniProt P28482); assay: Erk2 in vitro kinase assay; assay type: biochemical
T1 sequence (P28482 whole entry): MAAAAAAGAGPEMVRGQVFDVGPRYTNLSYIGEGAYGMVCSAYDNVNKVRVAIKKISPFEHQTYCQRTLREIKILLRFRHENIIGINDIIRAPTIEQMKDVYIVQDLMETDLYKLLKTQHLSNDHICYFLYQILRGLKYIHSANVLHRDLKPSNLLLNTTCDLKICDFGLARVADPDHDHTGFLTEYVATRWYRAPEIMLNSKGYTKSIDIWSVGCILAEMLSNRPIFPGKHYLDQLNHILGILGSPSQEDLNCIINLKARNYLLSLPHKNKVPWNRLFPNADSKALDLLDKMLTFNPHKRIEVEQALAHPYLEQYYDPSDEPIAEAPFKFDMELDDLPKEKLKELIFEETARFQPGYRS

[6] = molecular target: Hck-TMYF gatekeeper mutant (Homo sapiens, UniProt P08631, T333M/Y522F); assay type: cell-based
Chain of Hck-TMYF gatekeeper mutant (P08631 22-526 T333M/Y522F limits assumed): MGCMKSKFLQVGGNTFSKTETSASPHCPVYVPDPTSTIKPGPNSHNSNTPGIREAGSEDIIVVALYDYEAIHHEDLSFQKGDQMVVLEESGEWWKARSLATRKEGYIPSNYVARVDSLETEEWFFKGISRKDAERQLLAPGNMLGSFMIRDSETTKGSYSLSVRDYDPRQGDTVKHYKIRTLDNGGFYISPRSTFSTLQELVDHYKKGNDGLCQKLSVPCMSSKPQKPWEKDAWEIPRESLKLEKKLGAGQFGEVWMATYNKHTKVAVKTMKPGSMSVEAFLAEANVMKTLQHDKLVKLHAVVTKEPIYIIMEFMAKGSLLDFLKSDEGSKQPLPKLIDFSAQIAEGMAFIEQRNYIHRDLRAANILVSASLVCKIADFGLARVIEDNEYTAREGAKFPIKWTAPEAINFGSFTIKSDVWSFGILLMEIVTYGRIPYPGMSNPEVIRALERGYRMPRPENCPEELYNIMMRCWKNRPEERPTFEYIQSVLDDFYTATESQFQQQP

Erk2 [7] = molecular target: T1, Erk2; assay: KINOMEscan displacement assay, Erk2; assay type: binding; conditions: 10 μM inhibitor
[8] = system: Rat-2 cells expressing c-Fes/v-Fps chimera; assay: Soft-agar colony formation, Rat-2 fibroblasts transformed by c-Fes/v-Fps chimera; assay type: cell-based, rodent
[9] = Rat2, read-out: inhibition of soft-agar colony formation

Chain of Hck-YF (P08631 22-526 Y522F limits assumed): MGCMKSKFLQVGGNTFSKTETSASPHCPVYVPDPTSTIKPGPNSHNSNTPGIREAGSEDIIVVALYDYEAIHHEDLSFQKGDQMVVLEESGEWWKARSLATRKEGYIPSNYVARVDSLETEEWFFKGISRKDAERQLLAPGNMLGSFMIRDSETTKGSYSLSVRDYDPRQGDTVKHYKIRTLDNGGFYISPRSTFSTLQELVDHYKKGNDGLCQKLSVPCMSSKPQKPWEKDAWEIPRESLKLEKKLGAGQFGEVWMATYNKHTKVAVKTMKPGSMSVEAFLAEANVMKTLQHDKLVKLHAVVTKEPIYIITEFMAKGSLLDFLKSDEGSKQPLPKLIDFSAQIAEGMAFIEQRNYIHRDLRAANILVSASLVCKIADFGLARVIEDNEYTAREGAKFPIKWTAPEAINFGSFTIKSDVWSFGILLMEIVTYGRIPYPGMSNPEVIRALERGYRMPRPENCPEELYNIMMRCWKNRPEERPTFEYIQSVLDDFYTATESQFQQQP

| Compound | inhibition at 0.1 µM [1, 9] [%] | soft-agar colony growth ([1]; c-Fes transformants, 1 μM) | concentration giving complete inhibition of soft-agar colony formation ([1]; c-Fes-L145P) [nM] | IC50 (Hck-YF) [nM] | growth of control Rat-2 cells in monolayer culture ([2]; 100 nM) | reduction of growth of control Rat-2 cells expressing GFP alone ([2]; 1 μM, after 72 hrs) [%] | growth of control Rat-2 cells expressing GFP alone ([2]; 3 μM) | inhibition of osteoclast differentiation compared with BMM (RAW 264.7 cells; RAW 264.7, RANKL and VEGF) | inhibition of Hck-mediated soft-agar colony formation ([3]; 200 nM) | soft-agar colony growth ([3]; Hck transformants, 1 μM) | IC50 values for inhibition of osteoclast differentiation (in words) [4] | potency towards Erk in an in vitro kinase assay (Erk2 [5]) | IC50 [6] [nM] | displacement score for Erk2 (Erk2 [7]) | inhibition at 0.1 µM [8, 9] [%] | concentration giving complete inhibition of soft-agar colony formation ([8]; c-Fes/v-Fps) [nM] | effect on osteoclast differentiation (RAW 264.7 cells; RAW 264.7, 1 μM or 10 μM) |
| --- | --- | --- | --- | --- | --- | --- | --- | --- | --- | --- | --- | --- | --- | --- | --- | --- | --- |
| COc1cc(N2CCC(N3CCN(C)CC3)CC2)ccc1Nc1ncc(Cl)c(Nc2ccccc2S(=O)(=O)C(C)C)n1 [TAE684] | > 50 | Complete loss | 600 | > 10000 | only slightly reduced | 50 | completely abolished | Very similar results | only minimal inhibition | Complete loss | submicromolar range | very low potency | 685 | 0.3 | > 50 | 400 |  |
| Nc1[nH]nc2nnc(-c3c(-c4ccccc4)nn4ccccc34)cc12 [FR180204] |  |  |  |  |  |  |  |  |  |  |  |  |  |  |  |  | did not influence |
